Laboratory results from patent publication US20200038478A1, “POLYPEPTIDE AND COMPOSITION THEREOF FOR TREATING DISEASES OF METABOLIC SYSTEM” (WUHAN GRECTECH CO., LTD., priority 2017, published 2020).
Bridge positions count the residues as written; N and C are the ends. Square brackets hold non-standard residues; d marks the D form. Ends that are not written are not given here. Met(O) = CS(=O)CC[C@H](N)C(=O)O

Experiments:
Assay type in all cases: in vivo, Kunming white mice
normal mice [1] = test: Hypoglycemic effect on normal mice after subcutaneous injection on the back (Example 5); settings: for Blood glucose level at 15 min after administration / Blood glucose level at 30 min after administration / Blood glucose level at 45 min after administration / Blood glucose level at 60 min after administration / Blood glucose level prior to administration: single subcutaneous injection on the back; for Blood glucose level prior to administration: baseline
normal mice [2] = test: Hypoglycemic effect of synthetic polypeptides on normal mice after subcutaneous injection (Example 9); settings: 1 mg/mL at 0.05 ml/10 g, single subcutaneous injection on the back; for Blood glucose level prior to administration: baseline
normal mice [3] = test: Polypeptide vs insulin on normal mice after tail vein injection (Example 10)
normal mice [4] = test: Hypoglycemic effect of polypeptides on normal mice after tail vein injection (Example 4); settings: 1 mg/mL at 0.05 ml/10 g, single tail vein injection; for Blood glucose level prior to administration: baseline
normal mice [5] = test: Hypoglycemic effect on normal mice after tail vein, subcutaneous and intramuscular injection (Example 8); settings: 1 mg/mL at 0.05 ml/10 g once; for Blood glucose level prior to administration: baseline
[6] = Group A high-dose, 1 mg/mL at 0.10 ml/10 g
[7] = Group B medium-dose, 1 mg/mL at 0.05 ml/10 g
[8] = Group C low-dose, 1 mg/mL at 0.025 ml/10 g
[9] = single tail vein injection, polypeptide 2 mg/mL at 0.05 ml/10 g (10 mg/kg), insulin 0.5 U/mL (2.5 U/kg)
[10] = Group B, subcutaneous injection on the back
[11] = Group C, intramuscular injection in the lateral thigh

Substance | Blood glucose level at 15 min after administration (normal mice [2]) [mmol/L] | Blood glucose level at 30 min after administration (normal mice [2]) [mmol/L] | Blood glucose level at 45 min after administration (normal mice [2]) [mmol/L] | Blood glucose level at 60 min after administration (normal mice [2]) [mmol/L] | Blood glucose level prior to administration (normal mice [2]) [mmol/L] | further results
ASCNGVCSPFEMoxPPCGTSACRCIPVGLFIGYCRNPSG (ASCNGVCSPFE[Met(O)]PPCGTSACRCIPVGLFIGYCRNPSG; disulfide 15-32, 3-20, 7-22; listed as Pisum sativum) [SEQ ID No. 8] |  |  |  |  |  | Blood glucose level at 15 min after administration (normal mice [1]; [6]): 5.1 ± 0.4 mmol/L; Blood glucose level at 30 min after administration (normal mice [1]; [6]): 3.0 ± 0.4 mmol/L; Blood glucose level at 45 min after administration (normal mice [1]; [6]): 2.2 ± 0.2 mmol/L; Blood glucose level at 60 min after administration (normal mice [1]; [6]): 1.7 ± 0.1 mmol/L; Blood glucose level prior to administration (normal mice [1]; [6]): 7.4 ± 0.5 mmol/L; Blood glucose level at 15 min after administration (normal mice [1]; [7]): 5.2 ± 0.4 mmol/L; Blood glucose level at 30 min after administration (normal mice [1]; [7]): 4.3 ± 0.5 mmol/L; Blood glucose level at 45 min after administration (normal mice [1]; [7]): 3.2 ± 0.3 mmol/L; Blood glucose level at 60 min after administration (normal mice [1]; [7]): 2.6 ± 0.2 mmol/L; Blood glucose level prior to administration (normal mice [1]; [7]): 7.1 ± 0.6 mmol/L; Blood glucose level at 15 min after administration (normal mice [1]; [8]): 6.2 ± 0.3 mmol/L; Blood glucose level at 30 min after administration (normal mice [1]; [8]): 4.9 ± 0.3 mmol/L; Blood glucose level at 45 min after administration (normal mice [1]; [8]): 3.8 ± 0.2 mmol/L; Blood glucose level at 60 min after administration (normal mice [1]; [8]): 4.6 ± 0.2 mmol/L; Blood glucose level prior to administration (normal mice [1]; [8]): 7.3 ± 0.4 mmol/L; hypoglycemic activity (conclusion) (normal mice [1]; normal mice, subcutaneous injection): explicit hypoglycemic activity
VSCNGVCSPFEMPPCGSSACRCIPYGLVVGNCRNPSG (disulfide 15-32, 3-20, 7-22) [SEQ ID No. 68] | 5.5 ± 0.4 | 4.2 ± 0.3 | 3.4 ± 0.4 | 2.2 ± 0.1 | 6.7 ± 0.6 | 
ASCNGVCSPFEIPPCGSPLCRCIPVGLVIGNCRNPYG (disulfide 15-32, 3-20, 7-22) [SEQ ID No. 21] | 6.7 ± 0.4 | 5.2 ± 0.3 | 4.3 ± 0.2 | 3.6 ± 0.1 | 7.8 ± 0.4 | 
ISCNGVCSPFDIPPCGSPLCRCIPAGLVIGNCRNPYG (disulfide 15-32, 3-20, 7-22; listed as Pisum sativum) [SEQ ID No. 11] |  |  |  |  |  | hypoglycemic effect compared with insulin (normal mice [3]; polypeptide 10 mg/kg vs insulin 2.5 U/kg, tail vein injection): the same hypoglycemic effect on normal mice as insulin; Blood glucose level at 15 min after administration (normal mice [3]; [9]): 4.1 ± 0.3 mmol/L; Blood glucose level at 30 min after administration (normal mice [3]; [9]): 2.8 ± 0.2 mmol/L; Blood glucose level at 45 min after administration (normal mice [3]; [9]): 2.2 ± 0.1 mmol/L; Blood glucose level at 60 min after administration (normal mice [3]; [9]): 2.0 ± 0.1 mmol/L; Blood glucose level prior to administration (normal mice [3]; single tail vein injection, polypeptide 2 mg/mL at 0.05 ml/10 g (10 mg/kg), insulin 0.5 U/mL (2.5 U/kg), baseline): 8.2 ± 0.5 mmol/L
ISCNGVCSPFEIPPCGSSLCRCIPAGLLVGKCRNPSG (disulfide 15-32, 3-20, 7-22) [SEQ ID No. 44] | 6.3 ± 0.3 | 5.5 ± 0.2 | 3.8 ± 0.3 | 2.6 ± 0.2 | 7.2 ± 0.3 | 
ASCNGVCSPFEMoxPPCGTSACRCIPVGLVIGYCRNPSG (ASCNGVCSPFE[Met(O)]PPCGTSACRCIPVGLVIGYCRNPSG; disulfide 15-32, 3-20, 7-22; listed as Pisum sativum) [SEQ ID No. 4] |  |  |  |  |  | Blood glucose level at 15 min after administration (normal mice [4]): 6.9 ± 0.4 mmol/L; Blood glucose level at 30 min after administration (normal mice [4]): 4.6 ± 0.3 mmol/L; Blood glucose level prior to administration (normal mice [4]): 7.5 ± 0.5 mmol/L
ASCNGVCSPFDIPPCGTPLCRCIPVGLVIGNCRNPYG (disulfide 15-32, 3-20, 7-22) [SEQ ID No. 13] | 6.1 ± 0.3 | 4.4 ± 0.4 | 3.5 ± 0.3 | 2.6 ± 0.3 | 7.4 ± 0.6 | 
ASCNGVCSPFEMPPCGSSACRCIPVGLLIGYCRNPSG (disulfide 15-32, 3-20, 7-22; listed as Pisum sativum) [SEQ ID No. 5] |  |  |  |  |  | Blood glucose level at 15 min after administration (normal mice [4]): 6.3 ± 0.3 mmol/L; Blood glucose level at 30 min after administration (normal mice [4]): 5.3 ± 0.3 mmol/L; Blood glucose level prior to administration (normal mice [4]): 7.1 ± 0.5 mmol/L
ASCNGVCSPFEMPPCGTSACRCIPVGLVIGYCRNPSG (disulfide 15-32, 3-20, 7-22; listed as Pisum sativum) [SEQ ID No. 3] |  |  |  |  |  | Blood glucose level at 15 min after administration (normal mice [5]; Group A, tail vein injection): 5.6 ± 0.3 mmol/L; Blood glucose level at 30 min after administration (normal mice [5]; Group A, tail vein injection): 4.5 ± 0.2 mmol/L; Blood glucose level at 45 min after administration (normal mice [5]; Group A, tail vein injection): 3.2 ± 0.1 mmol/L; Blood glucose level at 60 min after administration (normal mice [5]; Group A, tail vein injection): 2.4 ± 0.2 mmol/L; Blood glucose level prior to administration (normal mice [5]; Group A, tail vein injection): 7.3 ± 0.5 mmol/L; Blood glucose level at 15 min after administration (normal mice [5]; [10]): 5.2 ± 0.2 mmol/L; Blood glucose level at 30 min after administration (normal mice [5]; [10]): 3.5 ± 0.3 mmol/L; Blood glucose level at 45 min after administration (normal mice [5]; [10]): 2.8 ± 0.2 mmol/L; Blood glucose level at 60 min after administration (normal mice [5]; [10]): 2.1 ± 0.1 mmol/L; Blood glucose level prior to administration (normal mice [5]; [10]): 6.2 ± 0.3 mmol/L; Blood glucose level at 15 min after administration (normal mice [5]; [11]): 6.3 ± 0.5 mmol/L; Blood glucose level at 30 min after administration (normal mice [5]; [11]): 4.8 ± 0.4 mmol/L; Blood glucose level at 45 min after administration (normal mice [5]; [11]): 3.5 ± 0.3 mmol/L; Blood glucose level at 60 min after administration (normal mice [5]; [11]): 2.6 ± 0.2 mmol/L; Blood glucose level prior to administration (normal mice [5]; [11]): 8.1 ± 0.7 mmol/L
ASCNGVCSPFEMoxPPCGSSACRCIPVGLLIGYCRNPSG (ASCNGVCSPFE[Met(O)]PPCGSSACRCIPVGLLIGYCRNPSG; disulfide 15-32, 3-20, 7-22; listed as Pisum sativum) [SEQ ID No. 6] |  |  |  |  |  | Blood glucose level at 15 min after administration (normal mice [4]): 5.6 ± 0.3 mmol/L; Blood glucose level at 30 min after administration (normal mice [4]): 4.2 ± 0.3 mmol/L; Blood glucose level prior to administration (normal mice [4]): 6.6 ± 0.4 mmol/L
ISCNGVCSPFDMPPCGSPACRCIPAGLLIGYCRNPSG (disulfide 15-32, 3-20, 7-22) [SEQ ID No. 38] | 4.9 ± 0.3 | 3.6 ± 0.4 | 3.1 ± 0.2 | 3.5 ± 0.3 | 6.3 ± 0.5 | 
ISCNGVCSPFEMPPCGTSLCRCIPAGLVVGYCRNPSG (disulfide 15-32, 3-20, 7-22) [SEQ ID No. 50] | 6.2 ± 0.5 | 5.3 ± 0.2 | 4.6 ± 0.3 | 3.2 ± 0.3 | 7.3 ± 0.6 | 
ASCNGVCSPFEMoxPPCGTSACRCIPVGLVVGYCRNPSG (ASCNGVCSPFE[Met(O)]PPCGTSACRCIPVGLVVGYCRNPSG; disulfide 15-32, 3-20, 7-22; listed as Pisum sativum) [SEQ ID No. 2] |  |  |  |  |  | Blood glucose level at 15 min after administration (normal mice [4]): 6.5 ± 0.2 mmol/L; Blood glucose level at 30 min after administration (normal mice [4]): 4.6 ± 0.3 mmol/L; Blood glucose level prior to administration (normal mice [4]): 7.2 ± 0.3 mmol/L
VSCNGVCSPFDMPPCGTSACRCIPAGLFIGYCRNPSG (disulfide 15-32, 3-20, 7-22) [SEQ ID No. 61] | 5.6 ± 0.4 | 4.3 ± 0.3 | 3.6 ± 0.2 | 2.3 ± 0.1 | 6.9 ± 0.4 | 
VSCNGVCSPFDIPPCGTPACRCIPYGLFVGNCRNPYG (disulfide 15-32, 3-20, 7-22) [SEQ ID No. 52] | 6.4 ± 0.4 | 5.4 ± 0.5 | 4.3 ± 0.3 | 2.9 ± 0.3 | 7.1 ± 0.3 | 
ASCNGVCSPFDMPPCGTSACRCIPAGLFIGKCRNPYG (disulfide 15-32, 3-20, 7-22) [SEQ ID No. 17] | 6.6 ± 0.5 | 4.9 ± 0.4 | 3.6 ± 0.3 | 3.0 ± 0.2 | 8.2 ± 0.7 | 
ISCNGVCSPFDIPPCGTPLCRCIPAGLFVGKCRNPYG (disulfide 15-32, 3-20, 7-22) [SEQ ID No. 36] | 6.2 ± 0.4 | 4.3 ± 0.3 | 3.5 ± 0.2 | 2.8 ± 0.1 | 7.1 ± 0.5 | 
VSCNGVCSPFEIPPCGSPLCRCIPAGLVIGNCRNPYG (disulfide 15-32, 3-20, 7-22) [SEQ ID No. 63] | 5.9 ± 0.5 | 4.6 ± 0.4 | 3.2 ± 0.3 | 3.5 ± 0.2 | 6.6 ± 0.6 | 
